The text below walks through data of US20240383869A1, “ARYLACETYL INHIBITORS OF TG2 AND USES THEREOF” (UNIVERSITY OF OTTAWA, priority 2021, published 2024).

≈ marks a conversion by molar mass, not a printed value. Some results are limits rather than exact numbers.

A short description of series [1]: Kinetic solubility. The class given is physicochemical. Particulars: kinetic from dmso stock.
Series [2] relates to P-gp (MDR1). In words: MDCK-MDR1 permeability. Particulars: dog, MDCK-MDR1. It counts as in vitro ADME.
Series [3] concerns the target T1, hTG2 (Homo sapiens, UniProt P21980).
T1 sequence (P21980 1-687): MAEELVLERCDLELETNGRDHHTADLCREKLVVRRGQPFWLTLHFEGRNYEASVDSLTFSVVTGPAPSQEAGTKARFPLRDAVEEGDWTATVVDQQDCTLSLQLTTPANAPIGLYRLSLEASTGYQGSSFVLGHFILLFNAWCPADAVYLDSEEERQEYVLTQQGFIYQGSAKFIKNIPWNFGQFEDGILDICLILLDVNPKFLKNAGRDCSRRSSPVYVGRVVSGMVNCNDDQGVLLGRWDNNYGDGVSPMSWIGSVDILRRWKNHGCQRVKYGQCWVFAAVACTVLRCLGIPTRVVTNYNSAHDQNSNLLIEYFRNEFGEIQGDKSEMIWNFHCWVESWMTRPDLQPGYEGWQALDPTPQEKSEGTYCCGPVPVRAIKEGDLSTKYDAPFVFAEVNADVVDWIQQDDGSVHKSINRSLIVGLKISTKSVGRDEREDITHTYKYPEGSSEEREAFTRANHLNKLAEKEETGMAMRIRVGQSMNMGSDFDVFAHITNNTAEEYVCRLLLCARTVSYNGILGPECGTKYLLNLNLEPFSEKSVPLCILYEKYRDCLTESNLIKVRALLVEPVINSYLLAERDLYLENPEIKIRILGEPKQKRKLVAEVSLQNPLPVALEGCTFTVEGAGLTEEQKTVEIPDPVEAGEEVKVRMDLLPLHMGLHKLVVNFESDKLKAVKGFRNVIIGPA
In words: In vitro GTP binding assay (BODIPY GTP-γ-S fluorescence). Particulars: inhibitor 2×KI, 30 minutes at 25° C.; 3 μM BODIPY GTP-γ-S. The procedure: Previously we proposed a mechanism of action for the NC9, VA4 and AA9 inhibitors based on their ability to react covalently with the open conformation of TG2, locking the enzyme in that conformation and thereby abolishing the enzyme's ability to bind GTP and act as a G-protein. […] We used the same in vitro GTP binding assay to measure the ability of representative phenylacetyl inhibitors 67 and 72 to abolish GTP binding, as follows:
In vitro GTP binding assay. GTP binding was measured using a method similar to that reported previously (McEwen, D. P. et al., “Fluorescent BODIPY-GTP analogs: Real-time measurement of nucleotide binding to G proteins.” Anal. Biochem. 2001, 291 (1), 109-117). […] The buffer was then exchanged to 100 mM MOPS (pH=7.0), 1 mM EGTA and 5 mM MgCl2 to remove calcium via dialysis using a 10-kDa molecular weight cut off membrane. The fluorescent GTP analog was added to give a final concentration of 3.0 μM and fluorescence was measured on a microplate reader after 10 minutes of incubation (Ex/Em: 490/520 nm).

The target of series [4] is T1, hTG2. Particulars: shown previously; cited from earlier work.

The molecule `C=CC(=O)NCCCC[C@H](NC(=O)Cc1ccccc1C)C(=O)N1CCN(C(=O)c2cccc3ccccc23)CC1` [Inhibitor 74, (S)-N-(6-(4-(1-naphthoyl)piperazin-1-yl)-5-(2-(2-methylphenyl)acetamido)-6-oxohexyl)acrylamide] gave a kinetic solubility in series [1] of 39 µM (≈ 21.6 µg/mL). In addition, the efflux ratio in series [2] is greater than 50.

Take `C=CC(=O)NCCCC[C@H](NC(=O)Cc1ccccc1F)C(=O)N1CCN(C(=O)c2cccc3ccccc23)CC1` [Inhibitor 72, (S)-N-(6-(4-(1-naphthoyl)piperazin-1-yl)-5-(2-(2-fluorophenyl)acetamido)-6-oxohexyl)acrylamide]: in series [3], the “inhibition of GTP binding of hTG2” value was “abolished the GTP binding ability”. Take `C=CC(=O)NCCCC[C@H](NC(=O)OCc1ccccc1)C(=O)N1CCN(C(=O)c2cccc3ccccc23)CC1` [AA9, reference compound]: the “suppression of TG2 binding of GTP-γ-S-FL BODIPY” value in series [4] was “suppress the ability of TG2 to bind GTP-γ-S-FL BODIPY”.

Broadly, the solubility (kinetic) is the concentration staying in solution when a stock, usually in DMSO, is diluted into the medium. Broadly, the efflux ratio is a quotient of directional permeabilities that is used to spot active efflux.
